Reference: patent publication US8815946B2, “Inhibition of proliferation and fibrotic response of activated corneal stromal cells” (University of Pittsburgh—of the Commonwealth System of …, priority 2008, dated 2014)
“Also recorded” adds a separate entry of the source.

Assays:
[1] = tested on: type III collagen, tenascin and fibronectin; experiment: Western blot of TGF-β1 activated rabbit corneal keratocytes: type III collagen, tenascin, fibronectin; format: cell-based; conditions: TGF-β1 (10 ng/ml)+1% FBS, two days, compared to controls with no treatment
Protocol: (§1) FIGS. 19A and 19B. Western blot analyses: Rabbit corneal keratocytes were isolated and cultured in serum-free DMEM/F12 into 60 mm tissue culture dishes. After 24 hrs of incubation, the media were replaced with DMEM/F12 medium containing TGF-β1(10 ng/ml)+1% FBS without (control) or with EP or EP-derivatives for two days. The cells were extracted in RIPA buffer and the extracts containing 5 μg of total proteins were loaded per lane for Western blot analysis.
(§2) Keratocytes or fibroblasts grown under different culture conditions were extracted in RIPA buffer (9.1 mM dibasic sodium phosphate, 1.7 mM monobasic sodium phosphate, 150 mM NaCl, pH, 7.4, 1% Nonidet P-40, 0.5% sodium deoxycholate, 0.1% SDS, 0.03 TIU/mL aprotinin, 1 mM sodium orthovanadate, and 100 μg/mL phenylmethylsulfonyl fluoride (PMSF)). Aliquots of cell extracts containing 50 or 100 μg protein were subjected to SDS-PAGE. Protein bands on SDS-PAGE were electrophoretically transferred to IMMOBILON-P™ membrane (Millipore Corp., Bedford, Mass.), stained with 0.1% Coomassie blue 250 in 40% methanol/1% acetic acid for 1 minute, destained one to three times with 50% methanol/1% acetic acid, scanned for densitometric comparisons of relative concentrations of proteins per lane, destained with methanol, and subjected to Western blot analysis. Immunoreactive bands were detected using chemiluminescence Western chemiluminescence reagents.
(§3) As described in Example 1, corneal stromal cells were isolated from rabbit corneas and cultured using the same procedures. The keratocytes in serum free media were treated with b-FGF (40 ng/ml)+HS (5 μg/ml) with or without 15 mM EP or 1, 2.5 or 5 mM following EP derivatives: 2-oxopropionic acid 3-methoxyphenyl ester, 2-oxopropionic acid 2-ethoxyethyl ester, 2-oxopropionic acid 2-chloroethyl ester, 2-oxopropionic acid isopropyl ester, 2-oxopropionic acid butyl ester, 2-oxopropionic acid p-tolyl ester, 2-oxopropionic acid tert-butyl ester. […] The relative levels of the expression of specific proteins were analyzed by Western blot analyses of the cell lysates as described supra.

[2] = tested on: alpha-smooth muscle actin; experiment: Western blot of TGF-β1 activated rabbit corneal keratocytes: alpha-smooth muscle actin; format: cell-based; conditions: TGF-β1 (10 ng/ml)+1% FBS, two days, compared to controls with no treatment
Protocol: as §1, §2, §3

SMILES	levels of type III collagen, tenascin and fibronectin (Western blot) [1]	alpha-smooth muscle actin levels (Western blot) [2]
CC(=O)C(=O)Oc1ccc(C)cc1 [2-oxopropionic acid p-tolyl ester]	reduced levels	reduced expression; also recorded: reduced levels
CC(=O)C(=O)OCCCl [2-oxopropionic acid 2-chloroethyl ester]	reduced levels	reduced expression; also recorded: reduced levels
